For 21 compounds, IC50 results are on record in patent US10035790B2, “RORγ modulators” (BRISTOL-MYERS SQUIBB COMPANY, priority 2012, dated 2018).

One test concerns the target T1, ligand binding domain of human RORγ (A262-S507) (Homo sapiens, UniProt P51449).
T1 construct: made in house; host or cells: E. coli
T1 sequence (P51449 262-507): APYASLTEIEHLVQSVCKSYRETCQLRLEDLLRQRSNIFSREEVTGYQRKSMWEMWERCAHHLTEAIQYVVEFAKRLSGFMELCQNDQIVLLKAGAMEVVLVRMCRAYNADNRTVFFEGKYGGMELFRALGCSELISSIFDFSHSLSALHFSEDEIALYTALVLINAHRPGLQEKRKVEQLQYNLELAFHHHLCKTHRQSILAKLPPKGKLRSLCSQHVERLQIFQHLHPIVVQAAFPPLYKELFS
Description: General RORγ SPA binding assay (competition with [3H]25-hydroxycholesterol). The note with it: IC50, RORγ SPA binding assay, inhibition of [3H]25-hydroxycholesterol binding. The procedure, abridged:
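Step one: compound meets 50 nM nickel-purified, His-tagged protein from E. coli for 15 min at room temperature (PBS, 0.5% fatty acid free BSA). Step two: radioligand is added for another 15 min. Step three: SPA beads are added for 30 min before scintillation reading and IC50 fitting.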
Usually IC50 stands for the concentration that inhibits the measured activity by half. For `Nc1ncc(C(=O)COc2ccnc(C(F)(F)F)n2)c(C2CCN(C(=O)Oc3c(F)cccc3F)CC2)n1` [Compound M3, 2,6-Difluorophenyl 4-[2-amino-5-({[2-(trifluoromethyl)pyrimidin-4-yl]oxy}acetyl)pyrimidin-4-yl]piperidine-1-carboxylate], the IC50 came to 19.1 nM.

Compound `Nc1ncc(C(=O)COc2cccc(C(F)(F)F)n2)c(C2CCN(C(=O)Oc3ccccc3F)CC2)n1` [Compound M14, 2-Fluorophenyl 4-[2-amino-5-({[6-(trifluoromethyl)pyridin-2-yl]oxy}acetyl)pyrimidin-4-yl]piperidine-1-carboxylate] came in with a concentration for half-maximal inhibition (IC50) of 485 nM.

The same test, now with this note: RORγ SPA binding assay, inhibition of [3H]25-hydroxycholesterol binding; read-out: IC50.
In the case of `Cc1cc(C)cc(C(=O)NCc2cnc(C)nc2C2CCN(C(=O)Cc3c(F)cccc3F)CC2)c1` [Compound K1, N-((4-(1-(2-(2,6-Difluorophenyl)acetyl)piperidin-4-yl)-2-methylpyrimidin-5-yl)methyl)-3,5-dimethylbenzamide], the IC50 came out at 4110 nM.

With `O=C(Cc1c(F)cccc1F)N1CCC(c2ncncc2C(=S)NCc2ccc(Cl)c(Cl)c2)CC1` [Compound L1, N-(3,4-Dichlorobenzyl)-4-(1-(2-(2,6-difluorophenyl)acetyl)piperidin-4-yl)pyrimidine-5-carbothioamide], the concentration for half-maximal inhibition (IC50) came to 81 nM.

On to `Cc1ncc(C(=O)COc2cccc(Cl)c2)c(C2CCN(C(=O)Cc3c(F)cccc3F)CC2)n1` [Compound M1, 2-(3-Chlorophenoxy)-1-(4-(1-(2-(2,6-difluorophenyl)acetyl)piperidin-4-yl)-2-methylpyrimidin-5-yl)ethanone], for which the IC50 amounted to 26 nM.

With `CSc1ncc(C(=O)COc2ccnc(C(F)(F)F)n2)c(C2CCN(C(=O)Nc3c(F)cccc3F)CC2)n1` [Compound M2, N-(2,6-Difluorophenyl)-4-[2-(methylthio)-5-({[2-(trifluoromethyl)pyrimidin-4-yl]oxy}acetyl)pyrimidin-4-yl]piperidine-1-carboxamide], the 50% inhibitory concentration (IC50) turned out to be 18.6 nM.

`Cc1ncc(C(=O)COc2cccc(C(F)(F)F)n2)c(C2CCN(C(=O)Nc3c(F)cccc3F)CC2)n1` [Compound M4, N-(2,6-Difluorophenyl)-4-[2-methyl-5-({[6-(trifluoromethyl)pyridin-2-yl]oxy}acetyl)pyrimidin-4-yl]piperidine-1-carboxamide]: the IC50 came out at 6.5 nM.

Turning to `Nc1ncc(C(=O)COc2ccnc(C(F)(F)F)n2)c(C2CCN(C(=O)Cc3c(F)cccc3F)CC2)n1` [Compound M5, 1-(2-Amino-4-{1-[(2,6-difluorophenyl)acetyl]piperidin-4-yl}pyrimidin-5-yl)-2-{[2-(trifluoromethyl)pyrimidin-4-yl]oxy}ethanone], the IC50 came to 16.3 nM.

`Nc1ncc(C(=O)COc2ccnc(C(F)(F)F)n2)c(C2CCN(C(=O)Nc3c(F)cccc3F)CC2)n1` [Compound M6, 4-[2-Amino-5-({[2-(trifluoromethyl)pyrimidin-4-yl]oxy}acetyl)pyrimidin-4-yl]-N-(2,6-difluorophenyl)piperidine-1-carboxamide]: the IC50 was found to be 12.2 nM.

Take `O=C(COc1ccnc(C(F)(F)F)n1)c1cnc(NCCF)nc1C1CCN(C(=O)Nc2c(F)cccc2F)CC1` [Compound M7, N-(2,6-Difluorophenyl)-4-{2-[(2-fluoroethyl)amino]-5-({[2-(trifluoromethyl)pyrimidin-4-yl]oxy}acetyl)pyrimidin-4-yl}piperidine-1-carboxamide]: the IC50 is 159 nM.

In the case of `Cc1nc(C)c(C(=O)COc2ccnc(C(F)(F)F)n2)c(C2CCN(C(=O)Nc3c(F)cccc3F)CC2)n1` [Compound M8, N-(2,6-Difluorophenyl)-4-[2,6-dimethyl-5-({[2-(trifluoromethyl)pyrimidin-4-yl]oxy}acetyl)pyrimidin-4-yl]piperidine-1-carboxamide], the concentration for half-maximal inhibition (IC50) is 1.7 nM.

Turning to `Cc1nc(C)c(C(O)COc2ccnc(C(F)(F)F)n2)c(C2CCN(C(=O)Nc3c(F)cccc3F)CC2)n1` (stereo not drawn) [Compound M9, N-(2,6-Difluorophenyl)-4-[5-(1-hydroxy-2-{[2-(trifluoromethyl)pyrimidin-4-yl]oxy}ethyl)-2,6-dimethylpyrimidin-4-yl]piperidine-1-carboxamide], the IC50 was 2 nM.

Regarding `Cc1nc(N)nc(C2CCN(C(=O)Nc3c(F)cccc3F)CC2)c1C(=O)COc1ccnc(C(F)(F)F)n1` [Compound M10, 4-[2-Amino-6-methyl-5-({[2-(trifluoromethyl)pyrimidin-4-yl]oxy}acetyl)pyrimidin-4-yl]-N-(2,6-difluorophenyl)piperidine-1-carboxamide], the IC50 was found to be 5.3 nM.

Regarding `Cc1nc(N)nc(C2CCN(C(=O)Nc3c(F)cccc3F)CC2)c1C(=O)COc1cccc(C(F)(F)F)n1` [Compound M11, 4-[2-Amino-6-methyl-5-({[6-(trifluoromethyl)pyridin-2-yl]oxy}acetyl)pyrimidin-4-yl]-N-(2,6-difluorophenyl)piperidine-1-carboxamide], the IC50 is 2.8 nM.

For the compound `CC(=O)Nc1nc(C)c(C(=O)COc2cccc(C(F)(F)F)n2)c(C2CCN(C(=O)Nc3c(F)cccc3F)CC2)n1` [Compound M12, 4-[2-(Acetylamino)-6-methyl-5-({[6-(trifluoromethyl)pyridin-2-yl]oxy}acetyl)pyrimidin-4-yl]-N-(2,6-difluorophenyl)piperidine-1-carboxamide], the IC50 came out at 6.2 nM.

In the case of `Nc1ncc(C(=O)COc2ccnc(C(F)(F)F)n2)c(C2CCN(C(=O)c3c(F)cccc3F)CC2)n1` [Compound M13, 1-(2-Amino-4-{1-[(2,6-difluorophenyl)carbonyl]piperidin-4-yl}pyrimidin-5-yl)-2-{[2-(trifluoromethyl)pyrimidin-4-yl]oxy}ethanone], the IC50 came out at 344 nM.

Consider `Cc1ncc(C(O)COc2cccc(C(F)(F)F)n2)c(C2CCN(C(=O)Nc3c(F)cccc3F)CC2)n1` (stereo not drawn) [Compound N1, N-(2,6-Difluorophenyl)-4-[5-(1-hydroxy-2-{[6-(trifluoromethyl)pyridin-2-yl]oxy}ethyl)-2-methylpyrimidin-4-yl]piperidine-1-carboxamide], for which the IC50 was determined as 6.6 nM.

Regarding `Nc1ncc(C(O)COc2ccnc(C(F)(F)F)n2)c(C2CCN(C(=O)Nc3c(F)cccc3F)CC2)n1` (stereo not drawn) [Compound N2, 4-[2-Amino-5-(1-hydroxy-2-{[2-(trifluoromethyl)pyrimidin-4-yl]oxy}ethyl)pyrimidin-4-yl]-N-(2,6-difluorophenyl)piperidine-1-carboxamide], the concentration for half-maximal inhibition (IC50) was 19.5 nM.

Take `Nc1ncc(C(O)COc2cccc(C(F)(F)F)n2)c(C2CCN(C(=O)Nc3c(F)cccc3F)CC2)n1` (stereo not drawn) [Compound N3, 4-[2-Amino-5-(1-hydroxy-2-{[6-(trifluoromethyl)pyridin-2-yl]oxy}ethyl)pyrimidin-4-yl]-N-(2,6-difluorophenyl)piperidine-1-carboxamide]: the IC50 came out at 2.3 nM.

As for `COc1ncc(C(O)COc2cccc(C(F)(F)F)n2)c(C2CCN(C(=O)Nc3c(F)cccc3F)CC2)n1` (stereo not drawn) [Compound N4, N-(2,6-Difluorophenyl)-4-[5-(1-hydroxy-2-{[6-(trifluoromethyl)pyridin-2-yl]oxy}ethyl)-2-(methyloxy)pyrimidin-4-yl]piperidine-1-carboxamide], the IC50 came to 12.1 nM.

`Cc1nc(C)c(C(O)COc2ccnc(C(F)(F)F)n2)c(C2CCN(C(=O)Nc3c(F)cccc3F)CC2)n1` (stereo not drawn) [Compound N5, N-(2,6-Difluorophenyl)-4-[5-(1-hydroxy-2-{[2-(trifluoromethyl)pyrimidin-4-yl]oxy}ethyl)-2,6-dimethylpyrimidin-4-yl]piperidine-1-carboxamide]: the IC50 is 8.4 nM.
